Laboratory results: patent US12545672B2, “Antibiotic compounds, methods of manufacturing the same, pharmaceutical compositions containing the same and uses thereof” (Debiopharm International S.A., priority 2018, dated 2026)

Experiments:
[1] = Mouse cassette PK and oral bioavailability determination; format: in vivo, Female BALB/c mice; conditions: female, BALB/c, mouse, plasma; iv 1 mg/kg, po 2 mg/kg, cassette dosing; read-out: Mouse F (%)
Description: Dose volumes were 5 ml/kg and 10 ml/kg for IV and oral administration, respectively. Compounds were co-formulated in a 10% DMSO (v/v) and 40% Captisol (w/v) in saline solution formulation (up to 3 compounds in a cassette). […] Tmax, Cmax, AUC, clearance, volume of distribution and oral bioavailability were estimated from the plasma concentrations using non-compartmental pharmacokinetic models. In particular, oral bioavailability (F %) was defined as F=(Doseiv*AUCpo)/(Dosepo*AUCiv)*100

[2] = target: Neisseria gonorrhoeae FabI (Neisseria gonorrhoeae, UniProt A0ACH0F547); test: Neisseria gonorrhoeae FabI inhibition assay (NADH consumption)
Neisseria gonorrhoeae = test: MIC50 by CLSI agar dilution on a panel of N. gonorrhoeae clinical isolates; format: cell-based; conditions: Neisseria gonorrhoeae; agar dilution, GC agar base, minimum of 15 clinical isolates; read-out: MIC50
Description: MIC50: MICs were determined in accordance with the appropriate Clinical and Laboratory Standards Institute (CLSI) methodology by the agar dilution susceptbility testing method in GC agar base.

Neisseria gonorrhoeae FabI, sequence (A0ACH0F547 1-261): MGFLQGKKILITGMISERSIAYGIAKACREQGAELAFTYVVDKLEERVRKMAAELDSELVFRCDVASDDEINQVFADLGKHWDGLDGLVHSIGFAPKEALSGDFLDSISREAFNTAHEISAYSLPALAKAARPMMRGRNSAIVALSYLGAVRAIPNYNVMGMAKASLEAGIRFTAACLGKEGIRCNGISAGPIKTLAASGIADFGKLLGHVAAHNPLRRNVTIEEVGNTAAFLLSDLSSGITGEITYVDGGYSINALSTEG

| SMILES | bioavailability [1] [%] | IC50 [2] [nM] | MIC50 (Neisseria gonorrhoeae) [µg/mL] |
| --- | --- | --- | --- |
| COc1cccc(Oc2cccc3c(CN(C)C(=O)/C=C/c4cnc5c(c4)NC[C@@](C)(O)C(=O)N5)c(C)oc23)c1 [Compound 183, (R,E)-3-(3-hydroxy-3-methyl-4-oxo-2,3,4,5-tetrahydro-1H-pyrido[2,3-b][1,4]diazepin-8-yl)-N-((7-(3-methoxyphenoxy)-2-methylbenzofuran-3-yl)methyl)-N-methylacrylamide] | 16 | < 10 | < 1 |
| COc1cccc(Oc2cccc3c(CN(C)C(=O)/C=C/c4cnc5c(c4)CCCC(=O)N5)c(C)sc23)c1 [Compound 194, (E)-N-((7-(3-methoxyphenoxy)-2-methylbenzo[b]thiophen-3-yl)methyl)-N-methyl-3-(8-oxo-6,7,8,9-tetrahydro-5H-pyrido[2,3-b]azepin-3-yl)acrylamide] | 12 | < 10 | < 1 |
| Cc1oc2c(N)cccc2c1CN(C)C(=O)/C=C/c1cnc2c(c1)CCCC(=O)N2 [Compound 168, (E)-N-((7-amino-2-methylbenzofuran-3-yl)methyl)-N-methyl-3-(8-oxo-6,7,8,9-tetrahydro-5H-pyrido[2,3-b]azepin-3-yl)acrylamide] |  | < 10 | < 1 |
| Cc1c(CN(C)C(=O)/C=C/c2cnc3c(c2)NCCC(=O)N3)oc2cccc(N)c12 [Compound 7, (E)-N-((4-amino-3-methylbenzofuran-2-yl)methyl)-N-methyl-3-(4-oxo-2,3,4,5-tetrahydro-1H-pyrido[2,3-b][1,4]diazepin-8-yl)acrylamide] |  | < 10 | < 1 |
| C[C@@]1(O)CNc2cc(/C=C/C(=O)N3C[C@H]4CC(c5ccc(Oc6ccccc6)cc5)=C[C@H]4C3)cnc2NC1=O [Compound 159, (R)-3-hydroxy-3-methyl-8-((E)-3-oxo-3-((3aS,6aR)-5-(4-phenoxyphenyl)-3,3a,4,6a-tetrahydrocyclopenta[c]pyrrol-2(1H)-yl)prop-1-en-1-yl)-1,2,3,5-tetrahydro-4H-pyrido[2,3-b][1,4]diazepin-4-one] |  | < 10 | < 1 |

Further lines, results first:

| bioavailability [1] [%] | IC50 [2] [nM] | MIC50 (Neisseria gonorrhoeae) [µg/mL] | SMILES |
| --- | --- | --- | --- |
|  | < 10 | < 1 | Cc1c(CN(C)C(=O)/C=C/c2cnc3c(c2)NCC(CO)C(=O)N3)oc2ccccc12 (stereo not drawn) [Compound 270, (E)-3-(3-(hydroxymethyl)-4-oxo-2,3,4,5-tetrahydro-1H-pyrido[2,3-b][1,4]diazepin-8-yl)-N-methyl-N-((3-methylbenzofuran-2-yl)methyl)acrylamide] |
|  | < 10 | < 1 | Cc1c(CN(C)C(=O)/C=C/c2cnc3c(c2)C=C[C@@](C)(O)C(=O)N3)oc2ccccc12 (single isomer, unassigned) [Compound 260] |
|  | < 10 | < 1 | CCC1(O)Cc2cc(/C=C/C(=O)N(C)Cc3oc4ccccc4c3C)cnc2NC1=O (stereo not drawn) [Compound 252, (E)-3-(6-ethyl-6-hydroxy-7-oxo-5,6,7,8-tetrahydro-1,8-naphthyridin-3-yl)-N-methyl-N-((3-methylbenzofuran-2-yl)methyl)acrylamide] |
|  | < 10 | < 1 | Cc1c(CN(C)C(=O)/C=C/c2cnc3c(c2)NC[C@@H](O)C(=O)N3)oc2ccccc12 [Compound 229, (R,E)-3-(3-Hydroxy-4-oxo-2,3,4,5-tetrahydro-1H-pyrido[2,3-b][1,4]diazepin-8-yl)-N-methyl-N-((3-methylbenzofuran-2-yl)methyl)acrylamide] |
|  | < 10 | < 1 | Cc1oc2ccccc2c1CN(C)C(=O)/C=C/c1cnc2c(c1)NC[C@](C)(CO)C(=O)N2 (single isomer, unassigned) [Compound 41] |
|  | < 10 | < 1 | Cc1c(CN(C)C(=O)/C=C/c2cnc3c(c2)N[C@H](C)CC(=O)N3)oc2ccccc12 [Compound 214, (E)-N-methyl-N-[(3-methylbenzofuran-2-yl)methyl]-3-[(2R)-2-methyl-4-oxo-1,2,3,5-tetrahydropyrido[2,3-b][1,4]diazepin-8-yl]prop-2-enamide] |
